Experimental data from article PMC8588467, “Rational Design 2-Hydroxypropylphosphonium Salts as Cancer Cell Mitochondria-Targeted Vectors: Synthesis, Structure, and Biological Properties” (Molecules, 2021).

Tests used:
[1] = system: HuTu 80 (human duodenal adenocarcinoma); test: MTT cytotoxicity, HuTu 80; format: cell-based
[2] = system: human cancer cell lines; test: MTT cytotoxicity, summary statements over several cell lines; format: cell-based; conditions: Homo sapiens, HuTu80; lines other than HuTu 80 and PC3; read-out: IC50 concentration values against other human cancer lines
[3] = system: HuTu-80 cells; test: Induction of apoptosis, annexin V/propidium iodide flow cytometry; format: cell-based, human; conditions: IC50/2, 48-h incubation
Procedure: Apoptosis is one of the most significant mechanisms used for screening new anti-cancer agents. The apoptosis-inducing effect was carried out on lead compounds 3a, b, k, j and 4c showing high selectivity against HuTu-80 cells. The studies were carried out by flow cytometry at concentrations IC50/2 and IC50 (Figure 4). […] The percentage of apoptotic cells in early and late phases was slightly changed with increase compound concentration up to IC50.
HuTu 80 cells at 1 × 10^6 cells/well in a final volume of 2 mL were seeded into six-well plates. After 48 h of incubation, various concentrations of compounds 3a,b and 3k were added to wells.
The cells were harvested at 2000 rpm for 5 min and, then, washed twice with ice-cold PBS, followed by resuspension in binding buffer. Next, the samples were incubated with 5 μL of annexin V-Alexa Fluor 647 (Sigma–Aldrich, St. Louis, MO, USA) and 5 μL of propidium iodide for 15 min at room temperature in the dark. Finally, the cells were analyzed by flow cytometry (Guava easy Cyte, MERCK, Rahway, NJ, USA) within 1 h. The experiments were repeated three times.

[4] = system: M-HeLa (human cervix epitheloid carcinoma); test: MTT cytotoxicity, M-HeLa; format: cell-based
[5] = system: HuTu-80 cells; test: Intracellular ROS production, CellROX Deep Red flow cytometry; format: cell-based, human; conditions: for CellROX Deep Red fluorescence intensity (ROS production): control 600
Description: Increasing the production of reactive oxygen species (ROS) by compounds characterizes the mitochondrial apoptotic pathway. Mitochondria are a potential source and target of ROS. ROS lead to disruption of mitochondrial functions and, as a consequence, to irreversible cell damage. In this regard, the effect of test compounds in HuTu-80 cells on ROS production, using flow cytometry analysis and CellROX® Deep Red flow cytometry kit was investigated. Data presented in Figure 7 show a significant increase in CellROX® Deep Red fluorescence intensity. This indicates an increase in ROS production in the presence of the tested compounds.
ROS generation was investigated using flow cytometry assay and CellROX® Deep Red flow cytometry kit. For this HuTu 80 cells were harvested at 2000 rpm for 5 min and then washed twice with ice-cold PBS, followed by resuspension in 0.1 mL of medium without FBS, to which was added 0.2 μL of Cell ROX® Deep Red and incubated at 37 °C for 30 min After three times washing the cells and suspending them in PBS, the production of ROS in the cells was immediately monitored using flow cytometer Guava easy Cyte, MERCK, NJ, USA).

[6] = system: T98G glioblastoma cell line; test: MTT cytotoxicity, T98G; format: cell-based, human
[7] = system: HuTu-80 cells; test: Mitochondrial membrane potential, JC-10 flow cytometry; format: cell-based, human; conditions: for % cells with J-aggregate (red, high membrane potential) / % cells with J-monomer (green, decreased membrane potential): JC-10
Description: Apoptosis induction by 3a, b, k, j and 4c through the mitochondrial pathway and HuTu-80 cell line was studied by flow cytometry using the fluorescent dye JC-10 from the Mitochondria Membrane Potential Kit. JC-10 accumulated in the mitochondrial matrix and formed aggregates (J-aggregate) with red fluorescence in normal cells with a high mitochondrial membrane potential. The membrane potential decreased in apoptotic cells. JC-10 started to diffuse out from the mitochondria and converts to the monomeric form (J-monomer) and emits green fluorescence. This is recorded with a flow cytometer. […] The process became more pronounced with an increase of 3a, b, 3k, j and 4c concentrations up to IC50 (Figure 5 and Figure 6).
Cells were harvested at 2000 rpm for 5 min and then washed twice with ice-cold PBS, followed by resuspension in JC-10 (10 µg/mL) and incubation at 37 °C for 10 min. After the cells were rinsed three times and suspended in PBS, the JC-10 fluorescence was observed by flow cytometry (Guava easy Cyte, MERCK, NJ, USA).

[8] = system: A549 (human lung carcinoma); test: MTT cytotoxicity, A549; format: cell-based
[9] = system: MCF-7 (human breast adenocarcinoma); test: MTT cytotoxicity, MCF-7; format: cell-based
[10] = system: PC3 (human prostate adenocarcinoma); test: MTT cytotoxicity, PC3
[11] = system: WI38 (diploid human embryo lung); test: MTT cytotoxicity, normal cells WI38; format: cell-based; conditions: MTT; mean ± SD, triplicate; read-out: WI38 IC50 (normal cell line)
[12] = In vitro rhodamine B release, dialysis bag diffusion method; format: physicochemical; conditions: aqueous solution without nanoparticles; phosphate buffer 0.025 M, pH 7.4, 37 °C
Procedure: The monitoring of rhodamine B release from liposomes was performed using the dialysis bag diffusion method. Dialysis bags retain liposomes and allow the released rhodamine B to diffuse into the medium. The bags were soaked in Milli-Q water for 12 h before use. Then, 0.4 mL of liposomes were poured into the dialysis bag. The two bag ends were sealed with clamps. The bags were then placed in a vessel containing 100 mL of 0.025 M sodium phosphate buffer pH 7.4, the receiving phase. The vessel was placed in a thermostatic shaker (New Brunswick, NJ, USA) at 37 °C, under a stirring rate of 150 rpm. At predetermined time intervals, 0.5 mL of samples were withdrawn, and their absorbance at 554 nm was measured using Perkin Elmer λ35 (Perkin Elmer Instruments, Norwalk, CT, USA). All samples were analyzed in triplicate. The extinction coefficient of rhodamine B is 106,089 M^−1 cm^−1 at pH = 7.4.

[13] = IC50 normal cells (WI38) / IC50 cancer cells, ns = no selectivity

C=CCOCC(O)C[P+](c1ccccc1)(c1ccccc1)c1ccccc1.[I-] (centres unmarked) [4c, (3-(Allyloxy)-2-hydroxypropyl)triphenylphosphonium iodide]
SI HuTu 80 [1, 13]: 12.3
IC50 ([1]; MTT, mean ± SD, triplicate): 300 ± 20 nM
anti-cancer activity against the HuTu 80 cell line relative to doxorubicin ([1]; words): comparable to doxorubicin activity
IC50 [2]: 1100 to 3700 nM
apoptosis induction [3]: actively induce apoptosis
SI M-HeLa [4, 13]: 3.4
IC50 ([4]; MTT, mean ± SD, triplicate): 1100 ± 90 nM
CellROX Deep Red fluorescence intensity (ROS production) ([5]; IC50, 48 h): 4300
CellROX Deep Red fluorescence intensity (ROS production) ([5]; IC50/2, 48 h): 3200
ROS generation ([5]; compared to 3a and 3b and control (untreated cells)): most active to generate ROS
SI T98G [6, 13]: 1.8
IC50 ([6]; MTT, mean ± SD, triplicate): 2000 ± 100 nM
% cells with J-aggregate (red, high membrane potential) ([7]; IC50, 48 h): 51.1%
% cells with J-monomer (green, decreased membrane potential) ([7]; IC50, 48 h): 46.9%
% cells with J-aggregate (red, high membrane potential) ([7]; IC50/2, 48 h): 88.5%
% cells with J-monomer (green, decreased membrane potential) ([7]; IC50/2, 48 h): 11.3%
effect on mitochondrial membrane potential ([7]; more pronounced with increase of concentration up to IC50): decrease the mitochondrial membrane potential
SI A549 [8, 13]: 1.4
IC50 ([8]; MTT, mean ± SD, triplicate): 2600 ± 200 nM
SI MCF-7 [9, 13]: 1.4
IC50 ([9]; MTT, mean ± SD, triplicate): 2700 ± 200 nM
SI PC3 [10, 13]: 5.3
IC50 ([10]; read-out: IC50 PC3, MTT, mean ± SD, triplicate): 700 ± 60 nM
cytotoxic effect against the PC3 line relative to doxorubicin ([10]; words): two times higher than doxorubicin
IC50 [11]: 3700 ± 300 nM

CCN(CC)c1ccc2c(-c3ccccc3C(=O)O)c3ccc(=[N+](CC)CC)cc-3oc2c1 [Rhodamine B]
time of release of 50% Rhodamine B [12]: ≤ 20 min
